Laboratory results: US5501976A, “Methods and compositions for the control of the flesh fly” (The University of Florida, priority 1995, dated 1996)
Values joined by “and” are separate entries in the source; they are usually repeats but may differ in a detail not shown here. Equal values may be shown once. Read-outs that look alike come from different tables or passages of the source. Where no end group is shown, it is not given here.

Key:
[1] = tested on: trypsin biosynthesis in the midgut of female Neobellieria bullata; test: Effect of injected peptide on trypsin biosynthesis in the gut ([3H]DFP assay); format: in vivo
[2] = tested on: ecdysone biosynthesis by ring glands; test: In vitro ecdysone biosynthesis by larval ring glands; format: cell-based, Calliphora and Neobellieria
trypsin-like enzymes = test: Gut supernatant incubated with Neb-TMOF: conversion of [3H]DFP to [3H]DIP-trypsin derivatives; format: biochemical, Neobellieria; settings: gut supernatant incubated 18 hours at 4° C. with Neb-TMOF (FIG. 6)
ecdysteroid titer = test: In vivo ecdysteroid titer in larvae; settings: ten picomole per larva, within 18 hours
[3] = tested on: vitellogenin biosynthesis; test: Vitellogenin in hemolymph of injected females (SDS-PAGE); format: in vivo, Neobellieria
Description: Electrophoresis and fluorography. ^3 H!DIP-trypsin-like derivatives of 0.04 gut equivalent and 20 μl sample buffer were run by electrophoresis on 12.5% polyacrylamide gel for 1 hour at 20 mA and for 3 hours at 30 mA (Biorad protean 32 CM) (Laemmli, 1970; Borovsky and Schlein, 1988). Gels were stained for 20 minutes with Coomassie Brilliant Blue R250 and destained overnight with methanol/H2 O/acetic acid (40/50/10), and washed 2 times for 30 minutes in 100 ml dimethylsulfoxide (DMSO). Gels were then incubated for 2 h in 200 ml DMSO containing 44 g 2,5-diphenyloxazole (PPO) (Janssen Chimica, Belgium), rinsed with distilled water for 1 hour, dried for 2 hours in a Biorad slab gel dryer at 80° C. and exposed to a Hyperfilm-MP (Amersham) for 2 days at -70° C. Vitellogenin was separated on a 5-15% SDS gradient gel (Huybrechts and De Loof 1977).
Four-day-old females were injected with synthetic Neb-TMOF at final concentration of 10^-9 M. Twenty-four hours later, hemolymph was collected and subjected to PAGE. […] The three yolk polypeptides of vitellogenin were affected (FIG. 7). The decrease in vitellogenin in the hemolymph is probably due to the inhibition of trypsin biosynthesis and decrease in protein digestion in the gut. The Neb-TMOF can also affect the fat body, which is the major site of yolk polypeptide biosynthesis in Neobellieria.

CSCC[C@H](NC(=O)[C@H](Cc1ccccc1)NC(=O)CNC(=O)CNC(=O)[C@@H](N)Cc1ccc(O)cc1)C(=O)O [methionine-enkephalin, H-YGGFM-OH, reference compound]
effect on trypsin-like activity ([1]; injected with 10^-7 M, control group): without an effect

NPTNLH [Neb-TMOF, NH2 -Asn-Pro-Thr-Asn-Leu-His-COOH]
PTIH effect, onset and reversibility [2]: immediate and reversible
ecdysone biosynthesis inhibited ([2]; 10^-7 M): More than 98%
EC50 ([2]; ring glands of Neobellieria and Calliphora, read-out: EC50 of the biosynthesis of ecdysone by ring glands): 5 nM
EC50 ([2]; ring glands of larvae of Calliphora and Neobellieria, read-out: EC50 of in vitro ecdysone biosynthesis by ring glands): 5 nM
reduction in [3H]DIP-trypsin derivatives compared with controls (trypsin-like enzymes): No reduction
reduction of ecdysteroid titer in vivo (ecdysteroid titer): up to a factor of four
vitellogenin level in hemolymph compared with non-injected controls ([3]; 10^-9 M injected, 24 hours later, PAGE): low level of vitellogenin
egg yolk synthesis after injection ([3]; injection of the hormone): inhibited egg yolk synthesis
inhibition of trypsin biosynthesis ([1]; 10^-8 M, injected 4-day-old females): 35%
reduction in trypsin-like enzymes as compared with controls ([1]; 10^-9 M injected, liver meal, guts removed 6 h later (FIG. 6)): 51%
inhibition of trypsin biosynthesis ([1]; 10^-9 M, injected females): 60% and 50%
inhibition of trypsin biosynthesis ([1]; 10^-11 M): No inhibition
inhibition of trypsin biosynthesis ([1]; column purification step 1, 1.25 ovary equivalents, P<0.05): 44%
inhibition of trypsin biosynthesis ([1]; column purification step 2, 3.7 ovary equivalents, P<0.05): 38%
inhibition of trypsin biosynthesis ([1]; column purification step 3, 10 ovary equivalents, P<0.05): 43%
inhibition of trypsin biosynthesis ([1]; column purification step 4, 10 ovary equivalents, P<0.05): 44%
inhibition of trypsin biosynthesis ([1]; column purification step 5, 38.5 ovary equivalents, P<0.05): 20%
inhibition of trypsin biosynthesis in the gut, significance (FIG. 5) ([1]; in vivo, 10^-8 M and 10^-9 M, P<0.05): Significant inhibition
effective dose of 50% inhibition (ED50) of trypsin biosynthesis ([1]; physiological concentrations): 10^-9 M
activity in Neobellieria relative to mosquito TMOF ([1]; versus mosquito TMOF): six fold more active
